According to the NIST ThermoML archive (doi:10.1016/j.tca.2011.06.003):

Assay: xn = mol fraction of the nth substance listed
Conditions: 101 kPa, Liquid; for speed of sound: Sing-around technique in a fixed-path interferometer; for mass density: Vibrating tube method

NCCNCCN [di(2-aminoethyl)amine] + CC(C)CO
Conditions	mass density, 293.15 K [kg/m3]	mass density, 298.15 K [kg/m3]	mass density, 303.15 K [kg/m3]	speed of sound, 293.15 K [m/s]	speed of sound, 298.15 K [m/s]	speed of sound, 303.15 K [m/s]	viscosity, 298.15 K [mPa·s]
x1 = 0.054	815.237	811.313	807.355	1243	1226.2	1209.3	4.027
x1 = 0.1043	826.644	822.66	818.653	1275.2	1258	1241.1	4.548
x1 = 0.1529	836.817	832.792	828.735	1305.2	1287.9	1270.7	5.094
x1 = 0.2068	847.162	843.096	839.013	1337.4	1319.8	1302.4	5.514
x1 = 0.2535	855.512	851.38	847.289	1364.9	1345.4	1328.1	5.73
x1 = 0.305	863.833	859.744	855.641	1390.5	1372.5	1355.1	5.908
x1 = 0.4057	878.879	874.785	870.683	1439.4	1421.6	1404.1	6.024
x1 = 0.5036	892.182	888.088	–	1484.7	1466.7	1449.2	5.962
x1 = 0.6053	905.319	901.203	–	1531.6	1511.4	1493.2	5.795
x1 = 0.7048	919.507	915.398	–	1570.3	1551.7	1533.6	5.661
x1 = 0.8098	929.46	925.283	–	1613.2	1594.3	1575.5	5.603
x1 = 0.8522	933.916	929.73	–	1630.9	1611.7	1592.9	5.574
x1 = 0.9074	939.952	935.74	–	1653.2	1633.9	1614.5	5.541
x1 = 0.9537	944.995	940.776	–	1671.9	1651.9	1632.6	5.539
